# How the values were obtained:
# [1] = system: site of ischemic disorder in the brain; assay: PET analysis of rat cerebral infarction (PIT) model with blocked middle cerebral artery; format: in vivo; settings: for accumulation of probe in site of ischemic disorder: Normal, Day-1, Day-7, PET 60 minutes
# Method: The rat was subjected to anesthesia induction using 4% halothane (30% O2, 70% room air), and during the surgery, the halothane concentration was maintained at 1.5% to 2%. The skin was incised along the left eye cavity margin under a surgical microscope, and an elliptical window (hole) having a size of about 3 mm was cut open in the lower cranium using a dental drill so that the left middle cerebral artery could be seen under the dura mater. Photosensitizer Rose Bengal (20 mg/kg) was administered through the tail vein of the rat, the middle cerebral artery was irradiated with green light having a wavelength of 540 nm for 10 minutes, and thus cerebral infarction was developed in the rat.
# In the respective rats before the onset of cerebral infarction (Normal), 1 day after the onset of cerebral infarction (Day-1), and 7 days after the onset of cerebral infarction (Day-7), glucose metabolism (using [^18F]FDG as a probe) and the activity of mitochondrial Complex-1 (using [^18F]BMS or [^18F]BCPP-EF as a probe) in the sites of ischemic disorder in the brain were monitored by the PET method. Specifically, each of the probes was bolus administered in an amount of 6 to 8 MBq/animal through the tail vein of the rat, and the analysis was carried out for 60 minutes. During the analysis, the rat was inactivated by continuously administering chloral hydrate (100 mg/kg/hr) through the tail vein of the rat.
# [2] = Oil-solubility (log P); format: physicochemical
# [3] = system: mitochondrial Complex-1; assay: In vitro autoradiography of rat brain slices and in vivo PET of living rat brain (background evaluation of [18F]BMS)
# From the text: On the other hand, it has been reported that [^18F]BMS-747158-02 (2-tert-butyl-4-chloro-5-[4-(2-fluoroethoxymethyl)-benzyloxy]-2H-pyridazin-3-one, [^18F]BMS) serves as a PET probe that recognizes mitochondrial Complex-1 (hereinafter, may be referred to as “MC-1”), and this compound is used in a functional evaluation of the brain or the heart (Patent Literature 1 and Non-Patent Literature 1).
# [4] = system: mitochondrial Complex-1; assay: PET analysis of intracerebral activity of mitochondrial Complex-1 in young and aged monkey; format: in vivo; settings: young monkey (5 years old) versus aged monkey (22 years old), FIG. 10
# Method: (§1) Cephalic vein or saphenous vein was secured as the route of intravenous administration to the test animal, and femoral artery or posterior tibial artery was secured as the route for collecting arterial blood. First, the amount of radioactivity of [^18F]BMS, [^18F]BCPP-EF or [^11C]BCPP-EM was measured. As radioactive agents, [^18F]BMS and [^18F]BCPP-EF were administered through an indwelling needle indwelled in a test animal in an amount of administration of 300 to 500 MBq, and [^11C]BCPP-EM was administered in an amount of administration of 800 to 1200 MBq, such that the entire amount of the radioactive agent was intravenously administered over about 30 seconds. Simultaneously with the initiation of administration of the radioactive agent, measurement of emission (6 frames of 10 seconds, 6 frames of 30 seconds, 12 frames of 1 minute, 25 frames of 3 minutes, and 6 frames of 5 minutes; 55 frames for 121 minutes in total) was initiated.
# The results of a PET analysis obtained from a young monkey (5 years old) and an aged monkey (22 years old) are presented in FIG. 10. [^18F]BCPP-EF was used as the PET probe.
# [5] = system: mitochondrial Complex-1; assay: PET analysis of rotenone-administered rat (brain and heart); format: in vivo; settings: rat cerebellum, cerebral cortex, corpus striatum and heart; rotenone 0.1 mg/kg/h i.v.; FIGS. 5 and 6
# Method: A rat was anesthetized with chloral hydrate (400 mg/kg; I.P.) and was immobilized on a bed for measurement. Immediately thereafter, rotenone (0.1 mg/kg/h) or a vehicle was administered through the tail vein of the rat. In order to identify the position of the brain during the administration, an analysis was carried out using Clairvivo-CT (Shimadzu Corp.). Thereafter, the bed for measurement was moved to Clairvivo PET. After the administration of rotenone (0.1 mg/kg/h) or the vehicle was completed, [^18F]BMS or [^18F]BCPP-EF was immediately bolus administered in an amount of about 8 MBq/animal through the tail vein of the rat, and the measurement was carried out for 60 minutes. During the measurement, chloral hydrate (100 mg/kg/hr) was continuously administered through the tail vein of the rat, and thereby the rat was inactivated.
# [6] = system: mitochondrial Complex-1; assay: PET experiment on inhibition of binding to mitochondrial Complex-1 by rotenone administration in monkey brain; format: in vivo; settings: compared with [18F]BMS
# Method: as §1
# In the experiment on the inhibition of PET probe binding by rotenone administration in the brain of a monkey, rotenone was administered to the test animal by intravenous injection in an amount of 0.1 mg/kg/hr. Subsequently, [^18F]BMS, [^18F]BCPP-EF or [^11C]BCPP-EM was administered as a probe, and a PET analysis was carried out.
# [7] = system: mitochondrial Complex-1; assay: Autoradiography using living rat brain slices, inhibition of probe binding by rotenone; settings: for binding inhibitory effect by rotenone on probe binding: rotenone 2-20000 nM, probe 1 MBq/ml, FIGS. 3 and 4
# Method: A rat was anesthetized with chloral hydrate (400 mg/kg; I.P.) and decapitated. Thereafter, the brain was immediately sampled and cooled sufficiently, and the cooled brain was immersed in ACSF (artificial cerebrospinal fluid) in a sherbet state. A necessary block of the obtained brain was cut and adhered to a fixing platform of a vibration microtome HM650V (Thermo Fisher Scientific, Inc., Waltham, USA). Thereafter, brain slices having a thickness of 300 μm were produced. The cut brain slices were immersed in 24 ml of ACSF for 30 minutes under bubbling with O2, and thus the activities of cells were calmed. Thereafter, 20 μL of Vehicle or Rotenone (adjusted to concentrations of 2 nM, 20 nM, 200 nM, and 20000 nM in respective beakers) was added to ACSF, and the mixture was bubbled for 30 minutes. Furthermore, 1 MBq/ml of [^18F]BMS or [^18F]BCPP-EF was added to the ACSF, and bubbling was continued for 30 minutes. After completion of the bubbling, the brain slices were taken out and transferred to 100 ml of fresh ACSF. Subsequently, excess RI was washed away by bubbling the ACSF for another 30 minutes. Thereafter, the brain slices were arranged in a row on an OHP sheet, and an image thereof was captured with a scanner (Epson: GT-600). Subsequently, the OHP sheet having the brain slices arranged in a row thereon was placed on an imaging plate (ST-VI, Fujifilm Corp., Tokyo) having sensitivity to radiation, and the OHP sheet was left to stand for about one hour in the dark (contact). The imaging plate was subjected to detection with a Fluoro Image Analyzer, FLA-7000 (Fujifilm Corp., Tokyo).
# [8] = system: mitochondrial Complex-1; assay: PET analysis of intracerebral activity of mitochondrial Complex-1 in Parkinson's disease model monkey; format: in vivo, Macaca fascicularis; settings: Parkinson's disease (MPTP) model monkey versus normal monkey, FIG. 11
# Method: as §1, with “Simultaneously with the initiation of administration of the radioactive agent, measurement of emission (6 frames of 10 seconds, 6 frames of 30 seconds, 12 frames of 1 minute, 25 frames of 3 minutes, and 6 frames of 5 minutes; 55 frames for 121 minutes in total) was initiated.” left out
# A comparison of the intracerebral activity of mitochondrial Complex-1 was made between a normal monkey and a Parkinson's disease model monkey by a PET analysis. […] The degree of motility disturbance in the limbs was evaluated by observing the way that the Macaca fascicularis monkey picked up the feed, and also, by measuring the decrease in the sites of dopamine reabsorption using a PET analysis, it was finally confirmed that the Macaca fascicularis monkey had the condition of Parkinson's disease.
compound,measurement,setting,value
"CC(C)(C)n1ncc(OCc2ccc(COCCF)cc2)c(Cl)c1=O [[^18F]BMS, 2-tert-butyl-4-chloro-5-[4-(2-fluoroethoxymethyl)-benzyloxy]-2H-pyridazin-3-one]",accumulation of probe in site of ischemic disorder,"[1]; rat PIT model, FIG. 7",no accumulation of the probe was observed in the site of ischemic disorder
same,logP,[2],1.42
same,non-specific binding capacity,[3]; rat brain,high non-specific binding capacity
same,inhibitory effect in inhibition experiment using rotenone,"[3]; rotenone, inhibitory drug specific to Complex-1",an inhibitory effect cannot be sufficiently checked
CC(C)(C)n1ncc(OCc2ccc(OCCOCC[18F])nc2)c(Cl)c1=O [[^18F]BCPP-EF],amount of PET probe accumulated in the brain,[4],a larger amount of the PET probe was accumulated in the brain in the young monkey than in the aged monkey
same,accumulation of probe in site of ischemic disorder,"[1]; rat PIT model, FIG. 7",no accumulation of the probe was observed in the site of ischemic disorder
same,"degree of accumulation of probe, site of ischemic disorder versus normal site","[1]; rat PIT model, compared with [18F]BMS, FIG. 7",clearly different between a site of ischemic disorder and a normal site
same,uptake quantity of probe after administration of rotenone,[5],further reduced by the administration of rotenone than that of [^18F]BMS
same,specificity to mitochondrial Complex-1,[6],higher specificity to mitochondrial Complex-1 than [^18F]BMS
same,binding inhibitory effect of rotenone on probe binding,"[6]; rotenone 0.1 mg/kg/hr i.v., FIGS. 8 and 9",more likely to be affected by the binding inhibitory effect of rotenone
same,specificity to mitochondrial Complex-1,[7]; compared with [18F]BMS,higher specificity to mitochondrial Complex-1 than [^18F]BMS
same,binding inhibitory effect by rotenone on probe binding,[7],more likely to be affected by the binding inhibitory effect by rotenone than [^18F]BMS
same,amount of PET probe accumulating in the brain,[8],"smaller in the Parkinson's disease model monkey, compared with the normal monkey"
"OC[C@H]1OC(O)[C@H]([18F])[C@@H](O)[C@@H]1O (stereo partly shown) [[^18F]FDG, ^18F-fluorodeoxyglucose]",accumulation of probe in site of ischemic injury of the brain,"[1]; cerebral infarction model rat, PET, background statement",accumulation of [^18F]FDG is increased
same,accumulation of probe in site of ischemic disorder,"[1]; rat PIT model, FIG. 7",accumulation of [^18F]FDG increased in the site of ischemic disorder
CC(C)(C)n1ncc(OCc2ccc(OCCCC[18F])nc2)c(Cl)c1=O [[^18F]BCPP-BF],binding inhibitory effect by rotenone on probe binding,[7],affected by the binding inhibitory effect of rotenone

# Source: patent US9598399B2, “Compound suitable for detection of mitochondrial complex-1” (HAMAMATSU PHOTONICS K.K., priority 2012, dated 2017)
